Test results published in patent US7183095B2, “Cell culture system for synthesis of infectious hepatitis C virus” (priority 2001, dated 2007).

Tested on: HCV type 1a (pCV-H77C) in Huh-7 cells
Assay: Cell surface expression of HCV envelope proteins E1 and E2 by flow cytometry (FACS) in transfected Huh-7 cells
Type: cell-based, hepatitis C virus
Conditions: Huh-7 cells transfected with type 1a pCVH77C and AR3126, interferon treatment
Protocol: Transfected or supernatant treated Huh-7 cells were stained with anti-E1 or anti-E2 antibodies using procedures similar to those described previously by Koka et al. A goat anti-mouse IgG1 antibody conjugated to PE was used for labeling of the primary antibody. Flow cytometric analyses were performed on a Becton-Dickinson FACSCAN.
Huh-7 cells (1×10^7) were transfected/co-transfected with plasmid DNA at 60–70% confluency in T-75 tissue culture flasks. In some experiments transfection was carried out in 6-well plates (3×10^6 cells per well and 2 μg of each plasmid). Ten μgs of each plasmid was added to 0.45 ml of serum-free RPMI and mixed with 180 μl of superfect transfection reagent from Quiagen. The mixture was incubated at room temperature for 10 min after which 3 ml of RPMI containing 10% fetal bovine serum was then added. The mixture was then layered on Huh-7 cells and incubated at 37° C. for 6 h. The cell culture medium was changed regularly until the cells were harvested for labeling with appropriate antibodies or RNA isolation.
Viral protein synthesis was monitored by assaying cell surface expression of viral envelope proteins E1 and E2 by fluorescent activated cell sorting (FACS). Cell surface expression of HCV E1 and E2 was determined by flow cytometry following a procedure as previously described. […]

For gamma: interferon gamma, the E1/E2 expression was “inhibited E1/E2 expression only marginally”.
